EPA's ToxValDB 9.5 (doi:10.2903/j.efsa.2015.4001)

Columns and labels:
Anas platyrhynchos = conditions: reproductive
Oryctolagus sp. = conditions: developmental; development
Mus musculus = conditions: organ weight
Colinus virginianus = conditions: acute; oral
Apis mellifera = conditions: acute, duration: 48 hours, mortality

## CCOC(=O)COc1cc(-c2nn(C)c(OC(F)F)c2Cl)c(F)cc1Cl [Pyraflufen-ethyl]
Rattus norvegicus; acute, oral, mortality
  LD50: > 5000 mg/kg-day
Rattus norvegicus; chronic, duration: 2 years, organ weight
  NOAEL: 20 mg/kg-day
Rattus norvegicus; reproduction developmental
  NOAEL: 20 mg/kg-day
Anas platyrhynchos
  NOAEL: 50 mg/kg-day
Oryctolagus sp.
  NOAEL: 20 mg/kg-day
Mus musculus; chronic, duration: 18 months
  NOAEL: 20 mg/kg-day
Mus musculus; subchronic, duration: 90 days, oral
  NOAEL: 20 mg/kg-day
Tagia sp.; acute, duration: 14 days, mortality
  LC50: > 500 mg/kg
Tagia sp.; chronic/long-term
  NOEC: ≥ 250 mg/kg
Colinus virginianus
  LD50: > 2000 mg/kg-day
Apis mellifera; dermal
  LD50: > 100 µg/piece
Apis mellifera; oral, unspecified
  LD50: > 112 µg/piece
